Test [1] has as its target T1, Sodium/hydrogen exchanger (Pseudopleuronectes americanus) (UniProt Q804I7).
T1 sequence (whole entry): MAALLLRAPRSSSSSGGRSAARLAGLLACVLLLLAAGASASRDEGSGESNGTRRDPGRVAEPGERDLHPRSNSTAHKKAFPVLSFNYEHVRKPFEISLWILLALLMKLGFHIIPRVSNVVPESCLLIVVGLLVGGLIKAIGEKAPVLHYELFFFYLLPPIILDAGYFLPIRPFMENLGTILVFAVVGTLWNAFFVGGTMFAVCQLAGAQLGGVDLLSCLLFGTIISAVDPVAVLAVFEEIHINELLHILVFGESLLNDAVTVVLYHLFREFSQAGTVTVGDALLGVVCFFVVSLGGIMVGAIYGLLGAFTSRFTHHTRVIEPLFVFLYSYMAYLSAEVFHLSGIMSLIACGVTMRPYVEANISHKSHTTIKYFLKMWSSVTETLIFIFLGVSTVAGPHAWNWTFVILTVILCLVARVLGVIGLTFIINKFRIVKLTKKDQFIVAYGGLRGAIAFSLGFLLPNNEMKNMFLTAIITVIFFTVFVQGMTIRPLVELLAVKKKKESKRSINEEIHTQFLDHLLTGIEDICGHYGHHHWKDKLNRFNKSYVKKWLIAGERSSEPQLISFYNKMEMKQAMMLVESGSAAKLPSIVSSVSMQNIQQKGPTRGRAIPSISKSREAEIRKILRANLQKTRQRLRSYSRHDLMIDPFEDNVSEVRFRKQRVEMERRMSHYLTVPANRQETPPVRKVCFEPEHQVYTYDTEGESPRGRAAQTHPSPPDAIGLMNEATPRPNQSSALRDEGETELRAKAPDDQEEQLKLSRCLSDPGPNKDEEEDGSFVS
As to the kind of experiment: Inhibition of Pleuronectes americanus wild type NHE1 expressed in chinese hamster AP1 cells assessed as intracellular pHi recovery by ammonium chloride prepulse protocol. The class given is cell-based.

Test [2] addresses Sodium/hydrogen exchanger (Amphiuma tridactylum) (UniProt Q9W6Q1). In words: (§1) Inhibition of Amphiuma tridactylum wild type NHE1 expressed in chinese hamster AP1 cells assessed as intracellular pHi recovery by ammonium chloride prepulse protocol. It is filed as cell-based.
For test [3], the target named is Sodium/hydrogen exchanger 1 (Homo sapiens, UniProt P19634). As to the kind of experiment: Inhibition of human wild type NHE1 expressed in chinese hamster AP1 cells assessed as intracellular pHi recovery by ammonium chloride prepulse protocol. It is filed as cell-based.
Chain of Sodium/hydrogen exchanger 1 (P19634 whole entry, the tested form may be a part): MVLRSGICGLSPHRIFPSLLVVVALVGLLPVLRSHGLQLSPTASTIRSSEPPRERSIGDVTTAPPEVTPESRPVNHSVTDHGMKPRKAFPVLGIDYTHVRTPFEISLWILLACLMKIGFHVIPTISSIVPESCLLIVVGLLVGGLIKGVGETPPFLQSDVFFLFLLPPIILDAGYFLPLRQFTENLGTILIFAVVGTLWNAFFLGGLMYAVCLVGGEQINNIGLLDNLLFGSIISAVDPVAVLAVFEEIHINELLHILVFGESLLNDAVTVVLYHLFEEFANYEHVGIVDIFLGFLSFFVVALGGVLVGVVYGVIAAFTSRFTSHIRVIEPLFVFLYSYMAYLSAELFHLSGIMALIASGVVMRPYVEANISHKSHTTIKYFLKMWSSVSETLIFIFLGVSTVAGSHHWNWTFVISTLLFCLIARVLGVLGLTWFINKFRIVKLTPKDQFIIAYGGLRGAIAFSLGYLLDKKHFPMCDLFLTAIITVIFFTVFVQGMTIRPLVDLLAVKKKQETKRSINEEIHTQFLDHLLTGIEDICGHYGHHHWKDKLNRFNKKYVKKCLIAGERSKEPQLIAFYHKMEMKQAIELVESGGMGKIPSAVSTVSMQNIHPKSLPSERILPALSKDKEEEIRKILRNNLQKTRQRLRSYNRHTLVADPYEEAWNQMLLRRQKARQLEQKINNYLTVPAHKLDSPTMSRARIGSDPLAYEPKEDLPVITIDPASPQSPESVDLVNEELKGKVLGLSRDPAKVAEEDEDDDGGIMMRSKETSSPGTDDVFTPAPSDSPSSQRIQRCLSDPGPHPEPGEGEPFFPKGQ
Test [4] concerns AP1. In words: (§2) Inhibition of Pleuronectes americanus NHE1 C-terminal mutant containing TM10 domain of Amphiuma tridactylum expressed in chinese hamster AP1 cells assessed as intracellular pHi recovery by ammonium chloride prepulse protocol. It is filed as cell-based.
For test [5], the system named is AP1. As to the kind of experiment: (§3) Inhibition of Pleuronectes americanus NHE1 mutant containing TM10-12 domain of Amphiuma tridactylum expressed in chinese hamster AP1 cells assessed as intracellular pHi recovery by ammonium chloride prepulse protocol. The class given is cell-based.
Test [6] relates to AP1. As to the kind of experiment: (§4) Inhibition of Amphiuma tridactylum NHE1 mutant containing TM10-12 domain of Pleuronectes americanus expressed in chinese hamster AP1 cells assessed as intracellular pHi recovery by ammonium chloride prepulse protocol. It is filed as cell-based.
Test [7] relates to AP1. In words: (§5) Inhibition of Pleuronectes americanus NHE1 TM4 mutant containing VFFLF sequence of human expressed in chinese hamster AP1 cells assessed as intracellular pHi recovery by ammonium chloride prepulse protocol. The class given is cell-based.
The subject of test [8] is AP1. In words: Inhibition of Pleuronectes americanus NHE1 TM4 mutant containing TFFLF sequence of Amphiuma tridactylum expressed in chinese hamster AP1 cells assessed as intracellular pHi recovery by ammonium chloride prepulse protocol. The class given is cell-based.
Test [9] deals with T1, Sodium/hydrogen exchanger (Pseudopleuronectes americanus). In words: Inhibition of osmotic cell shrinkage-induced NHE1 activity in Pleuronectes americanus RBC at 1 mM.
In test [10] the target is Sodium/hydrogen exchanger (Amphiuma tridactylum, UniProt Q9W6Q1). The description is as §1. The class given is cell-based.
Chain of Sodium/hydrogen exchanger (Q9W6Q1 whole entry, the tested form may be a part): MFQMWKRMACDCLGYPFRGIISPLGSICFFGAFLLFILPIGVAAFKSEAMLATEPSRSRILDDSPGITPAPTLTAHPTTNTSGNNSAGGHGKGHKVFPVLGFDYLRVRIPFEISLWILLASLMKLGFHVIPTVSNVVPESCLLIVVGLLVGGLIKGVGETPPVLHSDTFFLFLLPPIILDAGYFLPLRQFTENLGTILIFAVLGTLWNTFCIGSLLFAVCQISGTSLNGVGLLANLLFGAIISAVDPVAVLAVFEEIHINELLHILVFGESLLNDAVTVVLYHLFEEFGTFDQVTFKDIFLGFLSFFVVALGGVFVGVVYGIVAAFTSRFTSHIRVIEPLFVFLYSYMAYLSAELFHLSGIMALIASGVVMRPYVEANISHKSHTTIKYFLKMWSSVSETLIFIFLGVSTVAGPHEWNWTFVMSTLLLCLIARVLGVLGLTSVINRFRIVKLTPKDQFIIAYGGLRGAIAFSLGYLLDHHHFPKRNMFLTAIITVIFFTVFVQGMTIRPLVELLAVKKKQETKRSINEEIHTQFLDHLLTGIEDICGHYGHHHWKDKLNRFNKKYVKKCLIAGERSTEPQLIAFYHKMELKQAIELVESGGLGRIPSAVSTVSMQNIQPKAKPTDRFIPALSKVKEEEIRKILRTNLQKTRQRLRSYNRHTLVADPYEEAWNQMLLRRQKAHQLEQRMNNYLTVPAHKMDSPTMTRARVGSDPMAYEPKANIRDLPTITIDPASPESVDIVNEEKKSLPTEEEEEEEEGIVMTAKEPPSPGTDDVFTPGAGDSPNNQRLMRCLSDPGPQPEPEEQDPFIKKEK
The subject of test [11] is AP1. As to the kind of experiment: Inhibition of Pleuronectes americanus NHE1 C-terminal mutant containing TM7 domain of Amphiuma tridactylum expressed in chinese hamster AP1 cells assessed as intracellular pHi recovery by ammonium chloride prepulse protocol. The class given is cell-based.
Test [12] is described as follows: as §2. The class given is cell-based.
A short description of test [13]: as §3. It is filed as cell-based.
The nature of test [14]: as §4. The class given is cell-based.
A short description of test [15]: as §5. The class given is cell-based.
Test [16] has as its system AP1. In words: Inhibition of Pleuronectes americanus NHE1 C-terminal mutant with replacement of residues C-terminal to 489 position with corresponding residues of Amphiuma tridactylum expressed in chinese hamster AP1 cells assessed as intracellular pHi recovery by ammonium chloride prepulse protocol. It is filed as cell-based.
In test [17] the target is Sodium/hydrogen exchanger (Amphiuma tridactylum) (UniProt Q9W6Q1). In words: Inhibition of osmotic cell shrinkage-induced NHE1 activity in Amphiuma tridactylum RBC.
Chain of Sodium/hydrogen exchanger (Amphiuma tridactylum) (Q9W6Q1 as listed by the source): as the sequence (Q9W6Q1 whole entry, the tested form may be a part) above
The target in test [18] is T1, Sodium/hydrogen exchanger (Pseudopleuronectes americanus). In words: Inhibition of osmotic cell shrinkage-induced NHE1 activity in Pleuronectes americanus RBC upto 100 uM.
In test [19] the target is Sodium/hydrogen exchanger (Amphiuma tridactylum) (UniProt Q9W6Q1). In words: Inhibition of osmotic cell shrinkage-induced NHE1 activity in Amphiuma tridactylum RBC at 100 uM.
Test [20] concerns the target T1, Sodium/hydrogen exchanger (Pseudopleuronectes americanus). In words: Inhibition of osmotic cell shrinkage-induced NHE1 activity in Pleuronectes americanus RBC at 20 uM.

pIC50: −log10 of the molar value. Calls of active or inactive are those of the source. No cut-off for these calls is given here.

In general, pIC50 refers to the negative decadic logarithm of the IC50, by convention in mol/L.

As to `CC(C)c1ccc(C(=O)N=C(N)N)cc1S(C)(=O)=O`, the outcome (in test [1]; in [2]; in the test with AP1 [4]; with AP1 [5]) was inactive. Further, the outcome (in test [3]; with AP1 [6]; with AP1 [7]; in the test on AP1 [8]) was Active.

As for `N=C(N)NC(=O)c1nc(Cl)c(N)nc1N` [AMILORIDE], the result (in test [9]; in the test with AP1 [16]) was inactive. The negative-log IC50 (pIC50) was 4.01 in test [10]; 3.31 in [12]; 3.86 in test [13]; 4.42 in [14]; 3.93 in test [15]. The outcome in the test with AP1 [11] and in the test with AP1 [8] was Active.

In the case of `CCN(c1nc(N)c(C(=O)NC(=N)N)nc1Cl)C(C)C` [5-(N-ETHYL-N-ISOPROPYL)AMILORIDE], the result in [17] was Active. Moreover, the outcome in test [18] was inactive. Further, the negative logarithm of the IC50 (pIC50) in test [10] was 5.06; in [3] it was 6.10; in test [12], 4.43; in test [13] it was 4.96; in test [14], 5.24; in [15] it was 6.04.

Consider `CS(=O)(=O)c1cc(C(=O)N=C(N)N)ccc1N1CCCCC1`, for which the result (in [19]; in test [20]; in [1]; in test [2]; with AP1 [4]; in the test on AP1 [5]) was inactive. The outcome (in [3]; in the test with AP1 [6]; with AP1 [7]; with AP1 [8]) was Active.

Source of the values: ChEMBL document CHEMBL1156466, “NHE1 inhibition by amiloride- and benzoylguanidine-type compounds. Inhibitor binding loci deduced from chimeras of NHE1 homologues with endogenous differences in inhibitor sensitivity” (J Biol Chem, 2007).
